{
  "source": "patent US6605639B1",
  "about": "“Ligands of nuclear receptor” (Nuclear Receptor Research, Ltd., priority 1998, dated 2003)",
  "key": {"[1]": {"test_system": "rats given streptozotocin", "experiment": "Relief of onset of streptozotocin-induced diabetes", "type": "in vivo, rat", "conditions": "male Wistar rats, streptozotocin 45 mg/kg i.v.; 20 mg/kg/day oral, 10 days; Mean ± SE", "method": "Eighteen male Wistar rats weighing about 200 g were divided into 3 groups at random. To the animals of 2 groups, 45 mg/kg of streptozotocin was intravenously administered. One of these groups was regarded as a control group, while the other was regarded as the Compound-6 administration group. To the remaining 1 group which was regarded as the normal control group, a 1/10 M citrate buffer (pH 3.5) […] was intravenously administered. Immediately after the administration of streptozotocin, a suspension of Compound-6 in acacia was orally administered once a day continuously for 10 days in a dose of 20 mg/kg/day. To other groups, an acacia solution alone was administered. After fasting for 6 hours after the final administration, blood was collected from the heart of each animal and the blood glucose level and the blood insulin level were measured. As the data given in Table 7a show, the oral administration of Compound-6 inhibited an increase in the blood glucose level and a decrease in the blood insulin level.\nEighteen male SD rats weighing about 250 g were divided into 3 groups at random. […] To the normal control group and the streptozotocin control group, the acacia solution alone was administered orally. After fasting for 6 hours after the final administration, blood was collected from the heart of each animal and the blood glucose level and the blood insulin level were measured. As the data given in Table 7b show, the oral administration of Compound-5 inhibited an increase in the blood glucose level and a decrease in the blood insulin level."}, "[2]": {"test_system": "patients suffered from hypercholesterolemia", "experiment": "Phase I clinical test", "type": "in vivo, human", "conditions": "for Serum total cholesterol: Mean ± SE", "method": "A phase I clinical test of Compound-6, one of the compounds of the present invention, was carried out with 17 female and male patients aged 40 to 82 suffered from hypercholesterolemia. The experiment was continued for 12 weeks and Compound-6 was administered in the first 8 weeks. […] From the 8th week to the 12th week (the placebo-administration period) a placebo was given without notifying the patients. The drug in a daily dose was divided into 3 portions and taken after meals. Each patient visited the hospital once a week and was subject to investigation and blood collection for analyzing serum."}, "db/db mice [3]": {"test_system": "db/db mice", "conditions": "oral; cited from earlier work"}, "db/db mice [4]": {"test_system": "db/db mice", "experiment": "Long-term oral administration to hereditary obese diabetic mice (pancreas function protecting effect)", "type": "in vivo, mouse", "source_text": "It has been already supported by the results of several experiments that oral administration of the compounds of the present invention enhances peripheral insulin sensitivity and ameliorates metabolic disorders in db/db mice. It is, however, noteworthy that the compounds of the present invention exert an effect in retaining the function pancreatic synthesis of insulin over a long period, which is defective in diabetes. This effect was clearly indicated by serum insulin level and pathologic observation on pancreas of db/db mice to which Compound-14 had been administered over about 1 year. […] Moreover, Compound-14 ameliorated urinary protein throughout the experimental period. […] Namely, there arose a conversion of non insulin-dependent diabetes mellitus into insulin-dependent diabetes mellitus,analogous to human type II diabetes. Even body weight was reduced to a level similar to that of normal litter after the 40th week, the db/db mice lacking leptin receptor underwent overeating and food energy, which could not be anabolized due to the poverty of insulin, was excreted from the body in a large amount.\nSince they lack hereditarily leptin […], db/db mice have no appetite control even at satiety. As a result, they suffer from hyperinsulinemia due to overeating and serious obesity, thereby undergoing the onset of diabetes. The compounds of the present invention were orally administered to db/db mice for 40 weeks (from 11 to 51 weeks after birth) (FIG. 2).\nAs obesity attained a maximum, insulin requirements exceeded insulin production levels. Thus, pancreatic Langerhans' islet β-cells having insulin depot granules therein were mostly degranulated and there arose insulin depot poverty. The pancreatic Langerhans' islet β-cells having been working severely to produce insulin in excess gradually fatigued. […] From 23rd week after birth, it became impossible to anabolize all of the food energy taken in excess due to the insufficient function of insulin, which induced a decrease in body weight. The food energy which could not be anabolized was excreted as urinary glucose. As a result, the urinary glucose increased with a decrease in the blood insulin level. […] Namely, there arose the conversion of noninsulin-dependent diabetes mellitus into insulin-dependent diabetes mellitus in clinical case of humans. […] However, Compound-14 has no function of restoring leptin receptor and thus exerts no effect on the process of the induction of obesity by hyperinsulinemia due to overeating.\nSince pancreatic Langerhans' islet β-cells are of key importance in various aspects of diabetes, the ability of the compound of the present invention to maintain the function of these cells over a long period of time, is very important in terms of the treatment and prevention of diabetes."}, "[5]": {"conditions": "After 10 weeks, placebo period after 8 weeks of drug (carry-over)"}, "[6]": {"conditions": "After 12 weeks, placebo period after 8 weeks of drug (carry-over)"}},
  "note": "Several values for one entry are separate records, joined by “and”; a condition that tells them apart may be missing. Equal entries are not always repeated. Entries after “also recorded” stand apart in the source; their conditions may differ.",
  "data": [
    {"smiles": "COc1c(Cl)c(C)c(C=O)c(O)c1C/C=C(C)/C=C/[C@@]1(C)[C@H](C)CCC(=O)[C@@H]1C", "note": "[Compound-6, 4-O-methylASC]", "values": [
      {"measurement": "Blood glucose", "setting": "[1]", "result": "277.2 ± 52.44", "unit": "mg/dL"},
      {"measurement": "Serum IRI", "setting": "[1]", "result": "12.3 ± 1.65", "unit": "mU/ml"},
      {"measurement": "patients with vertigo", "setting": "[2]; 17 patients", "result": "one"},
      {"measurement": "Serum total cholesterol, Decrease", "setting": "[2]; After 1 week, dose 0.5 (mg.kg)", "result": "−20", "unit": "%"},
      {"measurement": "Serum total cholesterol", "setting": "[2]; After 1 week, dose 0.5 (mg.kg), n = 17", "result": "273 ± 62.7", "unit": "mg/dL"},
      {"measurement": "Serum total cholesterol, Decrease", "setting": "[2]; After 2 weeks, dose 1 (mg.kg)", "result": "−22", "unit": "%"},
      {"measurement": "Serum total cholesterol", "setting": "[2]; After 2 weeks, dose 1 (mg.kg), n = 17", "result": "266 ± 66.7", "unit": "mg/dL"},
      {"measurement": "Serum total cholesterol, Decrease", "setting": "[2]; After 3 weeks, dose 2 (mg.kg)", "result": "−21", "unit": "%"},
      {"measurement": "Serum total cholesterol", "setting": "[2]; After 3 weeks, dose 2 (mg.kg), n = 17", "result": "269 ± 66.0", "unit": "mg/dL"},
      {"measurement": "Serum total cholesterol, Decrease", "setting": "[2]; After 4 weeks, dose 4 (mg.kg)", "result": "−28", "unit": "%"},
      {"measurement": "Serum total cholesterol", "setting": "[2]; After 4 weeks, dose 4 (mg.kg), n = 17", "result": "254 ± 65.7", "unit": "mg/dL"},
      {"measurement": "Serum total cholesterol, Decrease", "setting": "[2]; After 6 weeks, dose 8 (mg.kg)", "result": "−36", "unit": "%"},
      {"measurement": "Serum total cholesterol", "setting": "[2]; After 6 weeks, dose 8 (mg.kg), n = 17", "result": "217 ± 58.8", "unit": "mg/dL"},
      {"measurement": "Serum total cholesterol, Decrease", "setting": "[2]; After 8 weeks, dose 16 (mg.kg)", "result": "−33", "unit": "%"},
      {"measurement": "Serum total cholesterol", "setting": "[2]; After 8 weeks, dose 16 (mg.kg), n = 17", "result": "229 ± 61.5", "unit": "mg/dL"},
      {"measurement": "Serum total cholesterol, Decrease", "setting": "[2]; [5]", "result": "−25", "unit": "%"},
      {"measurement": "Serum total cholesterol", "setting": "[2]; [5]", "result": "256 ± 57.6", "unit": "mg/dL"},
      {"measurement": "Serum total cholesterol, Decrease", "setting": "[2]; [6]", "result": "−22", "unit": "%"},
      {"measurement": "Serum total cholesterol", "setting": "[2]; [6]", "result": "264 ± 57.7", "unit": "mg/dL"},
      {"measurement": "side effects, subjective or objective", "setting": "[2]; daily dose 1 mg/kg to 16 mg/kg, oral", "result": "no serious side effect; also recorded: no subjective or objective side effect"},
      {"measurement": "blood glucose levels of 5 diabetics included in the patients, lowered to", "setting": "[2]; human, in vivo", "result": 100, "unit": "mg/dL"},
      {"measurement": "systolic and diastolic blood pressure of patients with hypertension or borderline hypertension", "setting": "[2]; human, in vivo", "result": "lowered"}
    ]},
    {"smiles": "CC(/C=C/[C@@]1(C)[C@H](C)CCC(=O)[C@@H]1C)=C\\Cc1c(O)c(C=O)c(C)c(Cl)c1OCC(=O)O", "note": "[Compound-14, 4-O-carboxymethylASC]", "values": [
      {"measurement": "blood glucose level, serum lipid level and serum insulin level", "setting": "db/db mice [3]", "result": "significantly lowered"},
      {"measurement": "urinary glucose compared with the control group", "setting": "db/db mice [4]; 0.1% in feed, oral, 40 weeks (11 to 51 weeks after birth)", "result": "scarcely excreted into urine and 1/100"},
      {"measurement": "blood glucose level", "setting": "db/db mice [4]; 0.1% in feed, oral, about 40 weeks after birth", "result": "almost comparable to normal litter"},
      {"measurement": "function of pancreatic β-cells (insulin productivity)", "setting": "db/db mice [4]; long-term oral administration, about 1 year", "result": "completely sustained over 1 year"},
      {"measurement": "urinary protein", "setting": "db/db mice [4]; throughout the experimental period", "result": "ameliorated"}
    ]}
  ]
}
